According to patent publication US20090099195A1 (ASTRAZENECA AB, priority 2007, published 2009):

Key:
[1] = target: T1, rat P2X2/3 (rat P2X3 co-expressed with rat P2X2) (Rattus norvegicus, UniProt P49653+P49654); experiment: rat P2X2/3 FLIPR calcium (Fluo-4) antagonist assay; conditions: Rat P2X2/3 FLIPR Mean IC50 (nM), HEK-TREX cells, tetracycline-induced rat P2X3 with constitutive rat P2X2; agonist 500 nM α,β-methylene-ATP
T1 sequence (P49654 1-397): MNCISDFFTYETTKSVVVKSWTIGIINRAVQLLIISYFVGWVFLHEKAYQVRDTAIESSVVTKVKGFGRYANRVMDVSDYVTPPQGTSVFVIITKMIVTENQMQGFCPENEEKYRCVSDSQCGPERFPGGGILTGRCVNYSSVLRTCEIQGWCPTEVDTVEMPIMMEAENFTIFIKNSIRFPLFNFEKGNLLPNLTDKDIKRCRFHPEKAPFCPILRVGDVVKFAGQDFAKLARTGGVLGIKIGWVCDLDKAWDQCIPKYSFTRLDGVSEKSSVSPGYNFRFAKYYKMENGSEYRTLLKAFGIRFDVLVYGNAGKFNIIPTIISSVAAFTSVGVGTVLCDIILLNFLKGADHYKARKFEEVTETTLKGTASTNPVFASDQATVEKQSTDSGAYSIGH
T1 sequence (P49653 1-472): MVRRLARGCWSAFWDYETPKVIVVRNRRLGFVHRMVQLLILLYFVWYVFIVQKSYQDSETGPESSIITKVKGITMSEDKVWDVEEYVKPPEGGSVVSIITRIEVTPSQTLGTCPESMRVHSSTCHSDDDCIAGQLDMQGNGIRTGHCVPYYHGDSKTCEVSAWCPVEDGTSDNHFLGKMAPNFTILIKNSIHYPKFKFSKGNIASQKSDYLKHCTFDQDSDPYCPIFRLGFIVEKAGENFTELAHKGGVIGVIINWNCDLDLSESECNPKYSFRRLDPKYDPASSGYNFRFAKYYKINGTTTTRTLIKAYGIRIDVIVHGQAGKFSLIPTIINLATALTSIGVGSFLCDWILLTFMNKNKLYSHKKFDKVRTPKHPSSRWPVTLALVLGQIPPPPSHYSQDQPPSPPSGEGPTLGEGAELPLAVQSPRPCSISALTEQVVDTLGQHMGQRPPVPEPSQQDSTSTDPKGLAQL
Procedure: The assay used a calcium indicator dye (Fluo-4) that emits fluorescence, the intensity of which is related to the concentration of calcium that entered the cell when P2X3 was activated and the channel opened. Activation of hP2X3 or rat P2X3 and rat P2X2/3 (from the coexpression of rat P2X3 and rat P2×2) is elicited the by P2X3 agonist α,β methylene-ATP (Sigma M6517), and the resulting fluorescence is measured with a FLIPR II™ instrument (Molecular Devices). Compounds are tested for their ability to inhibit the agonist-induced fluorescent signal.
For the rat P2X2/3 HEK-TREX cells, induction of the rat P2X3 expression is used to generate the rat P2X2/3 channels in HEK-TREX cells and performed by addition of 1 μg/mL tetracycline (Invitrogen) 24 h prior to compounds testing to the HEK-TREX expressing the rat P2X2 constitutively. On the day of the experiment, the cells and test compounds are prepared as follows. […] After preparing the compounds, the medium is removed from the cell plates by inversion. A loading solution of 30 μL assay buffer containing 4 μM of the calcium indicator dye FLUO-4 AM (Molecular Probes F14202) is added to each well using a Multidrop (Labsystems). […] The incubation is terminated by washing the cells four times in assay buffer using a Skatron Embla (Molecular Devices), and 25 μL of assay buffer was left in each well. Cell plates are then transferred to the FLIPR. Experiments are initiated by measuring a baseline fluorescence reading for 10 seconds, followed by the addition of 12.5 μL of cpds and data sampling for a total 280 seconds. The experiments are terminated by addition of 12.5 μL of a reference agonist (500 nM α,β-methylene-ATP) or buffer, producing a final assay volume of 50 μL followed by data sampling for an additional 280 seconds.
In P2X3 antagonist experiments (human and rat assays) data are analysed as normalised maximal peak fluorescence monitored following agonist addition and calculated as percent of relative fluorescent counts from control agonist. The dose-response antagonist inhibition curves are analyzed in a 4-parameter sigmoidal fit using a non-linear curve-fitting program (XLfit version 5.0.6, ID Business Solutions Limited, Guildford, UK).

[2] = target: T2, hP2X3 (human Purinergic P2X receptors subtype 3), clone A (Homo sapiens, UniProt P56373); experiment: hP2X3 FLIPR calcium (Fluo-4) antagonist assay, clone A; conditions: Human P2X3 FLIPR Clone A Mean IC50 (nM), RLE cells expressing hP2X3 clone A (AB016608); agonist 500 nM α,β-methylene-ATP
T2 sequence (P56373 1-397): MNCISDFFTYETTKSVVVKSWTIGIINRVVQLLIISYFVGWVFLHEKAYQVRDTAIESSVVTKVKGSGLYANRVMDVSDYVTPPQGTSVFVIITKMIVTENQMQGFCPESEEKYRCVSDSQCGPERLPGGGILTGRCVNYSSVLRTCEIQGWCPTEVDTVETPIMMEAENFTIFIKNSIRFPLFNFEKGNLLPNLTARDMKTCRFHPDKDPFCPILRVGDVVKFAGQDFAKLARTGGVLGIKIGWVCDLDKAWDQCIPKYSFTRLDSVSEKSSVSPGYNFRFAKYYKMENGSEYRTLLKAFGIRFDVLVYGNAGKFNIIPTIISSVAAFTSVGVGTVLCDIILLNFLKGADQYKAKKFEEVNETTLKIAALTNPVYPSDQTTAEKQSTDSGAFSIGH

[3] = target: T3, hP2X3 (human Purinergic P2X receptors subtype 3), clone B (Homo sapiens, UniProt P56373); experiment: hP2X3 FLIPR calcium (Fluo-4) antagonist assay, clone B; conditions: Human P2X3 FLIPR Clone B IC50 (nM), RLE cells expressing hP2X3 clone B (NM_002559); agonist 500 nM α,β-methylene-ATP
T3 sequence (P56373 1-397): T2 sequence (P56373 1-397)

| IC50 [1] [nM] | IC50 [2] [nM] | IC50 [3] [nM] | Compound |
| --- | --- | --- | --- |
| 768 |  | 170 | CC(=O)N1CCN(c2nc3c(c(N4CCCC4c4cnc5ccccc5c4)n2)CN(C(C)C)C3=O)CC1 (stereo not shown) [Example 274, 4-(4-acetylpiperazin-1-yl)-8-propan-2-yl-2-(2-quinolin-3-ylpyrrolidin-1-yl)-3,5,8-triazabicyclo[4.3.0]nona-1,3,5-trien-7-one] |
| 10300 |  | 760 | CCC(c1ccccc1)C1CCCN1c1nc(N2CCN(C(C)=O)CC2)nc2c1CN(C(C)C)C2=O (stereo not shown) [Example 275, 4-(4-acetylpiperazin-1-yl)-2-[2-(1-phenylpropyl)pyrrolidin-1-yl]-8-propan-2-yl-3,5,8-triazabicyclo[4.3.0]nona-2,4,10-trien-7-one] |
| 11400 |  | 140 | CC(=O)N1CCN(c2nc3c(c(N4CCCC4c4ccc5ncccc5c4)n2)CN(C(C)C)C3=O)CC1 (stereo not shown) [Example 281, 4-(4-acetylpiperazin-1-yl)-8-propan-2-yl-2-(2-quinolin-6-ylpyrrolidin-1-yl)-3,5,8-triazabicyclo[4.3.0]nona-1,3,5-trien-7-one] |
| 3430 |  | 67 | COc1ccc(CC2CCCN2c2nc(N3CCN(C(C)=O)CC3)nc3c2CN(C(C)C)C3=O)cc1 (stereo not shown) [Example 286, 2-(4-acetylpiperazin-1-yl)-6-isopropyl-4-[2-[(4-methoxyphenyl)methyl]pyrrolidin-1-yl]-5H-pyrrolo[3,4-d]pyrimidin-7-one] |
| 8730 |  | 71 | CC(=O)N1CCN(c2nc3c(c(N4CCC[C@@H]4C(=O)Oc4ccccc4)n2)CN(C(C)C)C3=O)CC1 [Example 304, phenyl (2R)-1-[4-(4-acetylpiperazin-1-yl)-7-oxo-8-propan-2-yl-3,5,8-triazabicyclo[4.3.0]nona-1,3,5-trien-2-yl]pyrrolidine-2-carboxylate] |

Continued, molecule first:

| Compound | IC50 [1] [nM] | IC50 [2] [nM] | IC50 [3] [nM] |
| --- | --- | --- | --- |
| CC(C)N1Cc2c(NC(C)(C)Cc3ccc(Cl)cc3)nc(N3CCN(C)C(=O)C3)nc2C1=O [Example 69, 4-{[2-(4-chlorophenyl)-1,1-dimethylethyl]amino}-6-isopropyl-2-(4-methyl-3-oxopiperazin-1-yl)-5,6-dihydro-7H-pyrrolo[3,4-d]pyrimidin-7-one] | 1920 | 86.2 | 140 |
| CCN(Cc1cc2ccccc2cn1)c1nc(N2CCN(C(C)=O)CC2)nc2c1CN(C(C)C)C2=O [Example 245, 2-(4-acetylpiperazin-1-yl)-4-(ethyl(isoquinolin-3-ylmethyl)amino)-6-isopropyl-5H-pyrrolo[3,4-d]pyrimidin-7(6H)-one] | 2160 |  | 28 |
| CCN(Cc1cnc2ccccc2c1)c1nc(N2CCN(C(C)=O)CC2)nc2c1CN(C(C)C)C2=O [Example 246, 2-(4-acetylpiperazin-1-yl)-4-(ethyl(quinolin-3-ylmethyl)amino)-6-isopropyl-5H-pyrrolo[3,4-d]pyrimidin-7(6H)-one] | 10400 |  | 68 |
| CC(=O)N1CCN(c2nc(NCc3cc(C)c4ncccc4c3)c3c(n2)C(=O)N(C(C)C)C3)CC1 [Example 247, 2-(4-acetylpiperazin-1-yl)-6-isopropyl-4-((8-methylquinolin-6-yl)methylamino)-5H-pyrrolo[3,4-d]pyrimidin-7(6H)-one] | 9070 |  | 77 |
| CC(=O)N1CCN(c2nc(NCc3cc4ccccc4c(N(C)C)n3)c3c(n2)C(=O)N(C(C)C)C3)CC1 [Example 252, 2-(4-acetylpiperazin-1-yl)-4-((1-(dimethylamino)isoquinolin-3-yl)methylamino)-6-isopropyl-5H-pyrrolo[3,4-d]pyrimidin-7(6H)-one] | 2110 |  | 87 |
| CC(=O)N1CCN(c2nc3c(c(N(Cc4cc5ccccc5cn4)CC4CC4)n2)CN(C(C)C)C3=O)CC1 [Example 253, 2-(4-acetylpiperazin-1-yl)-4-((cyclopropylmethyl)(isoquinolin-3-ylmethyl)amino)-6-isopropyl-5H-pyrrolo[3,4-d]pyrimidin-7(6H)-one] | 1110 |  | 63 |
| CC(=O)N1CCN(c2nc3c(c(N4CCC[C@@H]4C(=O)OCc4ccccc4)n2)CN(C(C)C)C3=O)CC1 [Example 265, benzyl (2R)-1-[4-(4-acetylpiperazin-1-yl)-7-oxo-8-propan-2-yl-3,5,8-triazabicyclo[4.3.0]nona-1,3,5-trien-2-yl]pyrrolidine-2-carboxylate] | 15700 |  | 850 |
| CC(=O)N1CCN(c2nc3c(c(N4CCCCC4Cc4ccc(F)cc4)n2)CN(C(C)C)C3=O)CC1 (stereo not shown) [Example 268, 4-(4-acetylpiperazin-1-yl)-2-[2-[(4-fluorophenyl)methyl]-1-piperidyl]-8-propan-2-yl-3,5,8-triazabicyclo[4.3.0]nona-1,3,5-trien-7-one] | 12400 |  | 500 |
| CC(=O)N1CCN(c2nc3c(c(N4CCCC4c4cc(C)cc(C)c4)n2)CN(C(C)C)C3=O)CC1 (stereo not shown) [Example 270, 4-(4-acetylpiperazin-1-yl)-2-[2-(3,5-dimethylphenyl)pyrrolidin-1-yl]-8-propan-2-yl-3,5,8-triazabicyclo[4.3.0]nona-2,4,10-trien-7-one] | 9910 |  | 340 |
| CCOc1ccc(C2CCCN2c2nc(N3CCN(C(C)=O)CC3)nc3c2CN(C(C)C)C3=O)cc1 (stereo not shown) [Example 272, 4-(4-acetylpiperazin-1-yl)-2-[2-(4-ethoxyphenyl)pyrrolidin-1-yl]-8-propan-2-yl-3,5,8-triazabicyclo[4.3.0]nona-2,4,10-trien-7-one] | 12900 |  | 270 |
